Entries after “also recorded” stand apart in the source; their conditions may differ.
Experiments:
Solubility for NMR = type: physicochemical; conditions: 80% H2O/10% ^2H2O/10% 2H6-DMSO
[1] = NMR titration with ferric ions; type: binding; conditions: pH 4.0, 298 K, FeCl3, precipitate in the NMR tube
[2] = Absorption titration with ferric citrate; type: binding; conditions: by relative association constants
[3] = test system: cell proliferation and migration; conditions: cited from earlier work
human CCK2 receptor = target: T1, human CCK2 receptor (Homo sapiens, UniProt P32239); assay: Receptor binding assay, CCK2 receptor; conditions: 1 μM desferrioxamine, COS-7 cells; triplicates, ANOVA
T1 sequence (P32239 1-447): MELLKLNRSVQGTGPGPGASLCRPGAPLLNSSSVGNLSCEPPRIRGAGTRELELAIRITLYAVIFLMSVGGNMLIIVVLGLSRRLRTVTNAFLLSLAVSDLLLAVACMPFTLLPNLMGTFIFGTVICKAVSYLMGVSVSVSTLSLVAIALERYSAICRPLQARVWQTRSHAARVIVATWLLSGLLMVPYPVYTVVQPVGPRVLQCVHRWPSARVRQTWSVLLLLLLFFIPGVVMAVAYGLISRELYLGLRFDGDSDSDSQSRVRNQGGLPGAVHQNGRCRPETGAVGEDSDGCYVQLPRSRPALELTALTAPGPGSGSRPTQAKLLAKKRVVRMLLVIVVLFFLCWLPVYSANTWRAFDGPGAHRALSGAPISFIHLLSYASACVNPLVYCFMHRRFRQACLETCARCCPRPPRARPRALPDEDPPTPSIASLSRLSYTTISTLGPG

human CCK1 receptor = target: T2, human CCK1 receptor (Homo sapiens, UniProt P32238); assay: Receptor binding assay, CCK1 receptor; conditions: 1 μM desferrioxamine, COS-7 cells; triplicates, ANOVA
T2 sequence (P32238 1-428): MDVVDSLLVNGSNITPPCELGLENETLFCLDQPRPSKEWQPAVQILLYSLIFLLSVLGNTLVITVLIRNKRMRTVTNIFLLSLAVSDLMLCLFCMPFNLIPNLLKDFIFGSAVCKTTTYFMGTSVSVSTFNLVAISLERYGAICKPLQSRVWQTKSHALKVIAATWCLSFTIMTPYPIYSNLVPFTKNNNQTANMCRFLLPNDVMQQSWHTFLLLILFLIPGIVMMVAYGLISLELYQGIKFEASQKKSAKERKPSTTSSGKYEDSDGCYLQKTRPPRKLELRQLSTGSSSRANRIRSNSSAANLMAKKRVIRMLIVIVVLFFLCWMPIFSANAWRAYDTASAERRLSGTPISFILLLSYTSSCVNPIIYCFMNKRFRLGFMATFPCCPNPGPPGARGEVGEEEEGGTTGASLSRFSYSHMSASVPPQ

[4] = cited from earlier work
[5] = Absorption spectroscopy titration with ferric chloride; conditions: 40 μM peptide, 298 K

CSCC[C@H](NC(=O)[C@H](Cc1ccc(O)cc1)NC(=O)[C@@H](N)CC(=O)O)C(=O)NCC(=O)N[C@@H](Cc1c[nH]c2ccccc12)C(=O)N[C@@H](CCSC)C(=O)N[C@@H](CC(=O)O)C(=O)N[C@@H](Cc1ccccc1)C(N)=O [CCK8]
solubility (in words) (Solubility for NMR): required the presence of ^2H6-DMSO (80% H2O/10% ^2H2O/10% 2H6-DMSO) to achieve solubility at 0.23 mM
solubility of Fe^3+-peptide complex (in words) [1]: formation of an insoluble Fe^3+-peptide complex

O=C(O)CC(O)(CC(=O)O)C(=O)O [citrate]
relative Fe^3+ binding (in words) [2]: binds Fe^3+ ions more tightly than any of the CCK peptides

CC(=O)N(O)CCCCCNC(=O)CCC(=O)N(O)CCCCCNC(=O)CCC(=O)N(O)CCCCCN [desferrioxamine]
effect on biological activity of glycine-extended gastrin (in words) ([3]; stimulation of cell proliferation and migration): completely blocked the biological activity of glycine-extended gastrin
effect on binding of labelled CCK8SO4, CCK2 receptor (in words) (human CCK2 receptor): no significant effect; also recorded: inability
effect on binding of labelled CCK8SO4, CCK1 receptor (in words) (human CCK1 receptor): no significant effect; also recorded: inability

N[C@@H](Cc1ccc(OP(=O)(O)O)cc1)C(=O)O [phosphotyrosine]
pKa of the phosphoryl group [4]: 5.9

CCK4
absorbance change on addition of ferric chloride, pH 4.0 (in words) ([5]; pH 4.0, 275 nm): no change in the absorbance; also recorded: did not cause any change in absorption
absorbance change / binding on addition of ferric chloride, pH 6.5 (in words) ([5]; pH 6.5, 275 nm): No evidence of binding of ferric ions; also recorded: no increase in absorbance was seen

ZGPWLEEEEEAYGWMDFamide [amidated gastrin]
requirement of ferric ions for biological activity (in words) [3]: ferric ions were not required for the biological activity

From PMC2574882 (The Biochemical journal, 2008)
